# Where two headings read alike, the source gives them in different places.
# What was measured:
# human PD-L1 = biological target: T1, human PD-L1 (Homo sapiens, UniProt Q9NZQ7); experiment: 1H NMR titration with human PD-L1; type: binding; settings: molar ratio 1:1
# T1 construct: pET-21b plasmid carrying the PD-L1 gene (amino acids 18–134); made in house; host or cells: Escherichia coli BL21
# Procedure: (§1) NMR spectra were recorded in PBS pH 7.4 containing 10% (v/v) of D2O added to the samples to provide the lock signal. Water suppression was carried out using the WATERGATE sequence. All the spectra were recorded at 300 K using a Bruker AVANCE 600 MHz spectrometer with the cryo-platform. The spectra were recorded at the ligand/protein ratio of 1:1, unless stated otherwise. The samples were prepared by adding small amounts of a 50 mM ligand stock solution in DMSO to the protein solution (0.20 mL) of PD-L1 fragment at a concentration of 0.2 mM. Spectra were visualized using TopSpin 4.0.2.
# murine PD-L1 = murine PD-L1 (Mus musculus, UniProt Q9EP73); experiment: 1H NMR titration with murine PD-L1; type: binding; settings: over-titration 1:10 protein:compound
# Procedure: We additionally compared the spectra of the interaction of 8j with hPD-L1 (Figure 2B) and murine PD-L1 (mPD-L1) (Figure 2C). Only for human PD-L1, changes in NMR were observed upon addition of 8j to the protein.
# as §1
# PD-1/PD-L1 interaction = biological target: T2, PD-1/PD-L1 interaction (Homo sapiens, UniProt Q9NZQ7); experiment: PD-1/PD-L1 ICB assay (Jurkat-ECs with CHO/TCRAct/PD-L1 cells, luciferase); type: cell-based
# T2 construct: host or cells: CHO-K1 (CHO/TCRAct/PD-L1) and Jurkat effector cells
# Procedure: After a successful optimization of the terphenyl compounds, the activity of the optimized molecules 7a and 8a–j in a cellular context was assessed. To this end, we first performed the PD-1/PD-L1 ICB assay. In this assay, T-cell receptor (TCR)-mediated activation of Jurkat effector cells (Jurkat-ECs) is reduced by the presence of PD-L1, exposed at the surface of CHO/TCRAct/PD-L1 cells (Figure 3A).
# The functional assay of the blockade of PD-1/PD-L1 interaction in vitro (PD-1/PD-L1 Blockade Bioassay, Promega) was performed according to the manufacturer’s protocol. CHO/TCRAct/PD-L1 cells or CHO/TCRAct or CHO-K1 cells were seeded on 96-well white plates at the density of 10,000 cells/well and the next day overlaid with Jurkat T cells (20,000 cells/well) in the presence of increasing concentrations of the compounds with DMSO only as a control (the concentration of DMSO was kept constant at 0.1%) or atezolizumab, as a positive control, anti-PD-L1 monoclonal antibody (Selleckchem). The 2.5-fold dilutions of atezolizumab were prepared in the assay buffer (RPMI 1640 + 1% FBS) on the day of the assay. Activation of the Jurkat T cells, reflected by luciferase activity, was monitored by luminescence measurements after 6 h of incubation (37 °C, 5% CO2), and 20 min of additional incubation with the Bio-Glo assay reagent (Promega) at room temperature. The luminescence was read on a Spark microplate reader (Tecan). The data are presented as fold induction of the luminescence signal relative to either untreated (for atezolizumab) or DMSO-treated (for compound) cells. Data points represent mean ± SD values from three to five independent experiments. Half-maximal effective concentrations (EC50 values) were calculated from the Hill curve fitting to the experimental data using Origin Pro 2020 software (OriginLab).
# [1] = Cytotoxicity assay toward Jurkat-ECs; type: cell-based; settings: human, Jurkat-EC cells, SI csv
# Procedure: The cytotoxicity of compounds was verified toward Jurkat-ECs since these cells provide the readout in the ICB assay and present a much higher degree of susceptibility to the compounds’ toxicity than CHO-K1 cells (not shown). Jurkat-ECs were seeded on 96-well transparent plates in the presence of increasing concentrations of the compounds with DMSO-treated cells as a control. The concentration of DMSO was kept constant (0.1%). After 48 h of incubation, a tetrazolium reagent, Biolog redox dye MIX MB (Biolog), was added according to the manufacturer’s protocol, and the culture plates were incubated for an additional 2 h (37 °C, 5% CO2). The absorbance was measured using a Spark microplate reader (Tecan) at 590 nm with 750 nm as a reference. The data are presented as Jurkat-EC survival relative to DMSO-treated control cells. Data points represent mean ± SD values from three independent experiments. Half-maximal effective concentrations (EC50 values) were calculated from the dose–response curve using OriginPro 2020 (OriginLab) software.
# [2] = tested on: PBMCs cocultured with CHO/TCRAct/PD-L1 cells; experiment: Cytokine accumulation in culture media of the TCA assay (CBA Th1/Th2/Th17 kit); type: cell-based, human; settings: TCA assay supernatants, four donors
# Procedure: In addition to the expression of surface markers, the accumulation of immune-related cytokines in the culture media collected in the TCA assay was monitored with the cytometric bead array (CBA) human Th1/Th2/Th17 kit. […] Also, the levels of IL-6, IFN-γ, and IL-2 increased, but these increases were not statistically significant.
# The concentration of the cytokines (IL-2, IL-4, IL-6, IL-10, IL-17A, IFN-γ, and TNFα) in supernatants was determined using the CBA Human Th1/Th2/Th17 kit (BD Biosciences), with data acquisition using the FACSCanto flow cytometer. The CBA beads were discriminated in FL-4 and FL-5 channels, while the concentration of specified cytokines was determined by the intensity of FL-2 fluorescence, using the respective standard reference curve and FCAP Array software (BD Biosciences). IL-4 was below the detection level and is not presented in the manuscript. Statistical significance was analyzed with one-way ANOVA using the Origin Pro 2020 software, followed by the Fisher’s posthoc test: *p < 0.05, **p < 0.01, […].
# T2 sequence (Q9NZQ7 19-290): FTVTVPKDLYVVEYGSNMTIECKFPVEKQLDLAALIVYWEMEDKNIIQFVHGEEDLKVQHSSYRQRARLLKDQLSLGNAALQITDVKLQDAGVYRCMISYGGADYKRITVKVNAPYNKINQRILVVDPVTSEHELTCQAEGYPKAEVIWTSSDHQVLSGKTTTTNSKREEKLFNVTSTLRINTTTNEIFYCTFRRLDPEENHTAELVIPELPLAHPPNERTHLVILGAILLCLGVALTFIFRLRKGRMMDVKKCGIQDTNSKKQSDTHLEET
# Sequence of murine PD-L1 (Q9EP73 18-134 limits assumed): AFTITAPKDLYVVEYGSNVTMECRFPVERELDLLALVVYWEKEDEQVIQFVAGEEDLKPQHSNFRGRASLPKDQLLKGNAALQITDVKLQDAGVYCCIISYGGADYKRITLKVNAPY
# T1 sequence (Q9NZQ7 18-134): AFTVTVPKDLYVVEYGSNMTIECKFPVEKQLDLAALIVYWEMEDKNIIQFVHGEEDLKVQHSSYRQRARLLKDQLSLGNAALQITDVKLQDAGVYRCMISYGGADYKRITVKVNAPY
smiles,measurement,setting,value
"COc1cc(-c2cccc(-c3ccc4c(c3)OCCO4)c2Cl)ccc1CNC(CO)(CO)CO [8j, 2-(((3′-(Benzo-1,4-dioxan-6-yl)-2′-chloro-3-methoxy-[1,1′-biphenyl]-4-yl)methyl)amino)-2-(hydroxymethyl)propane-1,3-diol]",change of hPD-L1 1H NMR spectrum on adding compound,human PD-L1,broadening of the hPD-L1 proton signals
same,interaction with mPD-L1 by 1H NMR,murine PD-L1,no interaction was observed
same,selectivity of PD-1/PD-L1-blocking activity versus cytotoxicity,"PD-1/PD-L1 interaction; EC50 (tox.) vs EC50 (bio.), Figure 3F",highest selectivity
same,EC50,"PD-1/PD-L1 interaction; Jurkat-ECs with CHO/TCRAct/PD-L1, 6 h, SI csv, read-out: Bioactivity (EC50 in the ICB assay)",1.03 ± 0.15 µM
same,EC50,PD-1/PD-L1 interaction; read-out: EC50 in cell-based assays,~1 µM
same,EC50 at 48 h,[1],2.88 ± 0.39 µM
same,accumulation of immune-related cytokines in culture media,[2],"significant increases observed for IL-6, TNF-α, IFN-γ, IL-10, and IL-2"

# Source: PMC8365601, “Terphenyl-Based Small-Molecule Inhibitors of Programmed Cell Death-1/Programmed Death-Ligand 1 Protein–Protein Interaction” (Journal of Medicinal Chemistry, 2021)
